Experimental findings from ChEMBL document CHEMBL4000229, “Structure-activity relationships of diverse xanthones against multidrug resistant human tumor cells” (Bioorg Med Chem Lett, 2017) are described below.

Format in all cases: functional, cell-based
One test concerns SMMC-7721. Description: Cytotoxicity against Taxol-resistant human SMMC7721 cells measured after 48 hrs by MTT assay. Conditions: SMMC-7721, 48 h.
The next test deals with A549. As to the kind of experiment: Cytotoxicity against Taxol-resistant human A549 cells measured after 48 hrs by MTT assay. The note with it: A549, 48 h.
Another test deals with NCI/ADR-RES. As to the kind of experiment: Cytotoxicity against human MCF7/ADR cells measured after 48 hrs by MTT assay. A general note: Tetrazolium dyes change colour on reduction, which living cells bring about.

pIC50: −log10 of the molar value. Some results are limits rather than exact numbers.

Broadly, the pIC50 is the IC50 on a negative log10 scale, so that one unit is a factor of ten. With `COc1ccc2oc3ccc(O)c(OC)c3c(=O)c2c1`, the pIC50 in the test on SMMC-7721 was 4.08; in the test on A549, 4.45; with NCI/ADR-RES it was 3.99.
For `COc1cc(O)c2c(=O)c3cc(O)ccc3oc2c1` the same measures were 4.06, 3.98 and 4.50.
The matching figures for `COc1cc2c(=O)c3c(O)c(OC)c(O)cc3oc2cc1O`: 3.99, under 3.70 and under 3.70.
For the molecule `COc1c(O)ccc2oc3ccc(O)cc3c(=O)c12`, the results for the pIC50 with SMMC-7721, in the test on A549 and in the test with NCI/ADR-RES were 4.25, 4.43 and 3.96, respectively.
Consider `COc1c(O)cc2oc3ccc(O)cc3c(=O)c2c1O`, for which the pIC50 in the test with SMMC-7721 is 4.31; in the test with A549, 3.78; in the test with NCI/ADR-RES it was under 3.70.
As for `O=c1c2cc(O)ccc2oc2cc(O)cc(O)c12`, the results for the pIC50 with SMMC-7721, in the test with A549 and in the test with NCI/ADR-RES were 4.41, 3.83 and 3.72, respectively.
Turning to `COc1ccc2oc3ccc(O)cc3c(=O)c2c1OC`, the values for the pIC50 in the test on SMMC-7721, in the test on A549 and in the test on NCI/ADR-RES were 4.09, 3.75 and 4.27, respectively.
For `O=c1c2cc(O)ccc2oc2cccc(O)c12`, the results for the pIC50 in the test on SMMC-7721, in the test with A549 and with NCI/ADR-RES were 4.22, under 3.70 and under 3.70, respectively.
As to `COc1ccc(O)c2c(=O)c3cc(O)ccc3oc12`, the pIC50 in the test on SMMC-7721 is 4.82; in the test with A549, 4.41; in the test with NCI/ADR-RES, 3.73.
For `COc1c(O)cc2oc3cccc(O)c3c(=O)c2c1O` the same measures were 4.36, under 3.70 and under 3.70.
Regarding `COc1cc(O)c2c(=O)c3cc(O)ccc3oc2c1OC`, the figures for the pIC50 in the test with SMMC-7721, in the test on A549 and in the test on NCI/ADR-RES were 4.20, 4.21 and 4.24, respectively.
Take `COc1c(O)cc(OC)c2c(=O)c3c(O)cccc3oc12`: the negative logarithm of the IC50 (pIC50) is 4.83 in the test on SMMC-7721, 4.59 with A549 and 4.52 with NCI/ADR-RES.
With `COc1cc(OC)c2c(=O)c3c(O)cccc3oc2c1OC`, the pIC50 is 4.29 with SMMC-7721, 4.46 in the test with A549 and 4.23 in the test on NCI/ADR-RES.
